{"source": "ChEMBL document CHEMBL1201862", "about": "“PubChem BioAssay data set” (2004)", "assay_in_all_cases": "inhibition of tumour cell growth, NCI panel, 48 h", "key": {"[1]": {"tested_on": "SF-295"}, "[2]": {"tested_on": "RPMI-8226"}, "[3]": {"tested_on": "OVCAR-4"}, "[4]": {"tested_on": "SK-MEL-28"}, "[5]": {"tested_on": "KM12"}, "[6]": {"tested_on": "SK-OV-3"}, "[7]": {"tested_on": "Hs-578T"}, "[8]": {"tested_on": "MOLT-4"}, "[9]": {"tested_on": "Malme-3M"}, "[10]": {"tested_on": "HT-29"}, "[11]": {"tested_on": "CCRF-CEM"}, "[12]": {"tested_on": "PC-3"}, "[13]": {"tested_on": "DMS-273"}, "[14]": {"tested_on": "UACC-62"}, "[15]": {"tested_on": "LXFL 529"}, "[16]": {"tested_on": "SF-268"}, "[17]": {"tested_on": "A498"}, "[18]": {"tested_on": "NCI-H460"}, "[19]": {"tested_on": "MDA-MB-435"}, "[20]": {"tested_on": "HOP-92"}}, "note": "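Compound exposure: 48 hours, 5 concentrations, 96-well plates. GI50 marks 50% less growth.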 Activity calls are given as the source filed them. Rule as the data show it: active = GI50 up to about 1.1 µM and inactive = higher.", "data": [{"smiles": "Cc1cc(NC(=O)NC(=O)c2ccccc2NC(=O)CN(C)C)ccc1Oc1ncc(Br)cn1", "values": [{"measurement": "GI50", "setting": "[1]", "value": "748 nM (active)"}, {"measurement": "GI50", "setting": "[2]", "value": "10400 nM (inactive)"}, {"measurement": "GI50", "setting": "[3]", "value": "71300 nM (inactive)"}, {"measurement": "GI50", "setting": "[4]", "value": "14900 nM (inactive)"}, {"measurement": "GI50", "setting": "[5]", "value": "1360 nM (inactive)"}, {"measurement": "GI50", "setting": "[6]", "value": "2810 nM (inactive)"}, {"measurement": "GI50", "setting": "[7]", "value": "1600 nM (inactive)"}, {"measurement": "GI50", "setting": "[8]", "value": "4950 nM (inactive)"}, {"measurement": "GI50", "setting": "[9]", "value": "6840 nM (inactive)"}, {"measurement": "GI50", "setting": "[10]", "value": "1610 nM (inactive)"}, {"measurement": "GI50", "setting": "[11]", "value": "2260 nM (inactive)"}, {"measurement": "GI50", "setting": "[12]", "value": "1080 nM (active)"}, {"measurement": "GI50", "setting": "[13]", "value": "3740 nM (inactive)"}, {"measurement": "GI50", "setting": "[14]", "value": "2210 nM (inactive)"}, {"measurement": "GI50", "setting": "[15]", "value": "13100 nM (inactive)"}, {"measurement": "GI50", "setting": "[16]", "value": "10000 nM (inactive)"}, {"measurement": "GI50", "setting": "[17]", "value": "929 nM (active)"}, {"measurement": "GI50", "setting": "[18]", "value": "780 nM (active)"}, {"measurement": "GI50", "setting": "[19]", "value": "289 nM (active)"}, {"measurement": "GI50", "setting": "[20]", "value": "20300 nM (inactive)"}]}, {"smiles": "O=c1c(Cl)c(Cl)cnn1CCCl", "values": [{"measurement": "GI50", "setting": "[1]", "value": "16000 nM (inactive)"}, {"measurement": "GI50", "setting": "[2]", "value": "6500 nM (inactive)"}, {"measurement": "GI50", "setting": "[3]", "value": "1570 nM (inactive)"}, {"measurement": "GI50", "setting": "[4]", "value": "2080 nM (inactive)"}, {"measurement": "GI50", "setting": "[5]", "value": "14400 nM (inactive)"}, {"measurement": "GI50", "setting": "[6]", "value": "3560 nM (inactive)"}, {"measurement": "GI50", "setting": "[7]", "value": "3250 nM (inactive)"}, {"measurement": "GI50", "setting": "[8]", "value": "2540 nM (inactive)"}, {"measurement": "GI50", "setting": "[9]", "value": "2560 nM (inactive)"}, {"measurement": "GI50", "setting": "[10]", "value": "2810 nM (inactive)"}, {"measurement": "GI50", "setting": "[11]", "value": "1850 nM (inactive)"}, {"measurement": "GI50", "setting": "[13]", "value": "5270 nM (inactive)"}, {"measurement": "GI50", "setting": "[14]", "value": "3400 nM (inactive)"}, {"measurement": "GI50", "setting": "[15]", "value": "1620 nM (inactive)"}, {"measurement": "GI50", "setting": "[16]", "value": "3830 nM (inactive)"}, {"measurement": "GI50", "setting": "[17]", "value": "13100 nM (inactive)"}, {"measurement": "GI50", "setting": "[18]", "value": "8130 nM (inactive)"}, {"measurement": "GI50", "setting": "[19]", "value": "2820 nM (inactive)"}, {"measurement": "GI50", "setting": "[20]", "value": "1930 nM (inactive)"}]}]}
